From ChEMBL document CHEMBL1201862, “PubChem BioAssay data set” (2004)
Calls of active or inactive are those of the source. No stated cut-off is given here; in the data, actives have a measured IC50 and inactives only a lower limit.

What was measured:
[1] = molecular target: T1, Sentrin-specific protease 6 (Homo sapiens, UniProt Q9GZR1); type: functional;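 further: Luminescence-based dose-response confirmatory assay of SENP6 inhibition, following up an ultra-high-throughput screen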
T1 sequence (Q9GZR1 whole entry): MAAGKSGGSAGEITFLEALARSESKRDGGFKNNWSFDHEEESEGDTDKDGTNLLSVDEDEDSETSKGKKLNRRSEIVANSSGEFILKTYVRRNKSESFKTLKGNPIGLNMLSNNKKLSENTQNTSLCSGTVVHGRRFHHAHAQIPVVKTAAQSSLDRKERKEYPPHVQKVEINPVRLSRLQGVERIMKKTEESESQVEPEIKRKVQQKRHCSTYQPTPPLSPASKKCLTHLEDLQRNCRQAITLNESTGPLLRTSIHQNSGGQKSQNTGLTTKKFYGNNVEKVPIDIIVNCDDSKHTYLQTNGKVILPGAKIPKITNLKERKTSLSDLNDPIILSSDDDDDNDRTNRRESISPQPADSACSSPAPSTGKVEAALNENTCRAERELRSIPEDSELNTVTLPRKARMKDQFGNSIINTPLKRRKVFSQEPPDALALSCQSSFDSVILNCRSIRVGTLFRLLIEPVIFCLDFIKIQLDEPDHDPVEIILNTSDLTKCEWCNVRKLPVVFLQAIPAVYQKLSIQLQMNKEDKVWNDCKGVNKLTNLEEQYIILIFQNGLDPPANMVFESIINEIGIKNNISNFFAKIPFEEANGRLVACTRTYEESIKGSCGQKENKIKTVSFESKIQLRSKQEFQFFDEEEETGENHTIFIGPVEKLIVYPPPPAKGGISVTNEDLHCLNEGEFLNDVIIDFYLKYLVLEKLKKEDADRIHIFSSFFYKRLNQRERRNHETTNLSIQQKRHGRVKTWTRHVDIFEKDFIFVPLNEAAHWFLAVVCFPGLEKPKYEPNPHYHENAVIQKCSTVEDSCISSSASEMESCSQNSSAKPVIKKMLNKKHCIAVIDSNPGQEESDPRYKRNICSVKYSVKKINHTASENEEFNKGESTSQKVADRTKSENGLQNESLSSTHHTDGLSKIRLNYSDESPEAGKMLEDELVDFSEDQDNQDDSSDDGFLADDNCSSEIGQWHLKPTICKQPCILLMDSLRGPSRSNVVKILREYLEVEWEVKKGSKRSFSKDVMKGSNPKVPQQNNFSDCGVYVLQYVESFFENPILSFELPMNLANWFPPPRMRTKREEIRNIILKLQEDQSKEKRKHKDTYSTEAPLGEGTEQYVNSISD

[2] = molecular target: T2, Apoptotic protease-activating factor 1 (Homo sapiens, UniProt O14727); type: functional
T2 sequence (O14727 whole entry): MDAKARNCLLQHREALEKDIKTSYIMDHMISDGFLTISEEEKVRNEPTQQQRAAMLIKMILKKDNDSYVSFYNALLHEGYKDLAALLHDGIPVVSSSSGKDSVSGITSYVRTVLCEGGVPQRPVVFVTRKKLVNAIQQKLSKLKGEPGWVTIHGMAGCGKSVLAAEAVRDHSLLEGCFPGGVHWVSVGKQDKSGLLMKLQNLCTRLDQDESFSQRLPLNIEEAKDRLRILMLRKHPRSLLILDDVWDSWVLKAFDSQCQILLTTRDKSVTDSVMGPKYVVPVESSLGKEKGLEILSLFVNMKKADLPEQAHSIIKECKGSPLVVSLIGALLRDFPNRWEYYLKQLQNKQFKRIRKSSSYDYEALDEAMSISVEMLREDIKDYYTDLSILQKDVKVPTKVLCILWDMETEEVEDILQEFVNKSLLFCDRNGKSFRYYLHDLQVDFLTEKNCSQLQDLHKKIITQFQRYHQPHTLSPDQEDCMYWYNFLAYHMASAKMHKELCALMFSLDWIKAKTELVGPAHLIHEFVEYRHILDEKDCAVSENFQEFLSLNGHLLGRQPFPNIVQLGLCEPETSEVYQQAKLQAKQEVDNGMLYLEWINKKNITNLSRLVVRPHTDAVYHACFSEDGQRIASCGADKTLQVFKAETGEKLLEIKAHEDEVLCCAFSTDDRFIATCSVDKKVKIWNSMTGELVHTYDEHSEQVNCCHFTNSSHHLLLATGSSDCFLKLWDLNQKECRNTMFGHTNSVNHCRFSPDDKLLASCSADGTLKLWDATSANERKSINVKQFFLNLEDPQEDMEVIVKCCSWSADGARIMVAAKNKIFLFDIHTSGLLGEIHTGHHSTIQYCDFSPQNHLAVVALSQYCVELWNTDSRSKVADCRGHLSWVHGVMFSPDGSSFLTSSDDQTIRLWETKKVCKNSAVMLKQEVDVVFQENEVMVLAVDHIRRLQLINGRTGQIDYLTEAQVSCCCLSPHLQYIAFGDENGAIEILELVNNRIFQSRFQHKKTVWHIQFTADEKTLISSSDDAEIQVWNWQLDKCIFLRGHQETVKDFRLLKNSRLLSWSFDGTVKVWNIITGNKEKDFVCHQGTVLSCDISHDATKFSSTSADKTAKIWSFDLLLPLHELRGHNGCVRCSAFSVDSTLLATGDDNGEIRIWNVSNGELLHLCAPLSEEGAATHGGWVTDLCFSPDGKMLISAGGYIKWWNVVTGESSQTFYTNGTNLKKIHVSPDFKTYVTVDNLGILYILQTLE

| Structure (SMILES) | IC50 [1] | IC50 [2] |
| --- | --- | --- |
| Oc1[nH]c2ccccc2c1N=Nc1ccc(F)cc1 | 2.03 µM (active) |  |
| O=C1C(Nc2ccccc2)=C(N2CCCCC2)C(=O)c2ccccc21 |  | 4.78 µM (active) |
